Test results reported in BindingDB's records for patent US11795173 (Xinthera, 2023).

How the values were obtained:
[1] = molecular target: Poly [ADP-ribose] polymerase 2 (Homo sapiens, UniProt Q9UGN5); experiment: Biochemical (FP) Assay
Method: (§1) PARP1 and PARP2 protein were expressed, purified, and diluted in assay buffer containing 50 mM Tris pH 8.0, 0.001% Triton X-100, 10 mM MgCI2, 150 mM NaCI to a final concentration of 20 nM.

[2] = molecular target: Poly [ADP-ribose] polymerase 1 (Homo sapiens, UniProt P09874); experiment: Biochemical (FP) Assay
Method: as §1

Chain of Poly [ADP-ribose] polymerase 2 (Q9UGN5 whole entry): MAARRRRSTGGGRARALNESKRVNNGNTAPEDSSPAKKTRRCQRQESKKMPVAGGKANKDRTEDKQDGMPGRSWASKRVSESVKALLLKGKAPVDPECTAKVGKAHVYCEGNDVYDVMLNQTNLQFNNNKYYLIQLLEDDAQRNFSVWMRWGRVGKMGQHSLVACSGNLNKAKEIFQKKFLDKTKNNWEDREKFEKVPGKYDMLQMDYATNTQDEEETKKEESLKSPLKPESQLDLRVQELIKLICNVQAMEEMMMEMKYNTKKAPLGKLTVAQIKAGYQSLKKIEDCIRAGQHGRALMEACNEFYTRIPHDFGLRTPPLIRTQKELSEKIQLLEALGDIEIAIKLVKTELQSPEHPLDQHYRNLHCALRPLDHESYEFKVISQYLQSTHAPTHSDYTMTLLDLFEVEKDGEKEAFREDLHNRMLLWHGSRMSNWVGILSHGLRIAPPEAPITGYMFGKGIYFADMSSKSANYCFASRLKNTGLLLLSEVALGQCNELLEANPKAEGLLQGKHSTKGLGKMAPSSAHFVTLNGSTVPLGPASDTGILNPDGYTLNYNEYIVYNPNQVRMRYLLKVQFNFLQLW
Chain of Poly [ADP-ribose] polymerase 1 (P09874 whole entry): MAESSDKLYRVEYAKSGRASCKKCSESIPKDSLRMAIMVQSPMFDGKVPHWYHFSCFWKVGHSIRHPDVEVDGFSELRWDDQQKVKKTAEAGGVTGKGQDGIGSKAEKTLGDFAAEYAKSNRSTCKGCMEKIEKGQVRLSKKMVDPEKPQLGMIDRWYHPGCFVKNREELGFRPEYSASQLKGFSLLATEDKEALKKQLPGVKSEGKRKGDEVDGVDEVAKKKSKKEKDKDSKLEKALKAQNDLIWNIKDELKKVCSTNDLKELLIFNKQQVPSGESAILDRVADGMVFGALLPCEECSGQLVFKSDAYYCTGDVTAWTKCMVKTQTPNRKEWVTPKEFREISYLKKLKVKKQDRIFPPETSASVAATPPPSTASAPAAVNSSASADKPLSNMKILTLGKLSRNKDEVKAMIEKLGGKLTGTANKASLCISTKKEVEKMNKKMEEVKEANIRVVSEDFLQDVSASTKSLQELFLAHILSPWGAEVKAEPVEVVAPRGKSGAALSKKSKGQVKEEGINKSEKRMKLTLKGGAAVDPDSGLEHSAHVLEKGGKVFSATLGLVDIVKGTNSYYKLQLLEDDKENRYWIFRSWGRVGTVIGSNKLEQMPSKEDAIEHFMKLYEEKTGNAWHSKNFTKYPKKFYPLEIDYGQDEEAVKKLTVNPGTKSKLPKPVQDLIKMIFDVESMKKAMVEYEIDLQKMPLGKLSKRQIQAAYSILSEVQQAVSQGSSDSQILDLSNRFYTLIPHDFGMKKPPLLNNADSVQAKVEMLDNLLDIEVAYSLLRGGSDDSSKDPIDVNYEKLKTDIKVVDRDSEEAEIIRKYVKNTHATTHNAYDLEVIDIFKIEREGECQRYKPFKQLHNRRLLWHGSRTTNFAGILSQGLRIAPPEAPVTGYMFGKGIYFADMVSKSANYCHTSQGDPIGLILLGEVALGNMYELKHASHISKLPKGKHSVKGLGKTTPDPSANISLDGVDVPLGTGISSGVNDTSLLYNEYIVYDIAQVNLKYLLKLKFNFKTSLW

IC50 [1] [nM]	IC50 [2] [nM]	Structure (SMILES)
> 100000	4	CNC(=O)c1ccc(N2CCN(Cc3ccc4c5c(c(=O)[nH]c4c3)CCO5)CC2)c(Cl)n1 [US11795173, Comp. Ex. 2]
> 100000	4.3	CNC(=O)c1ccc(N2CCN(Cc3cc(F)c4c5c(c(=O)[nH]c4c3)COC5)CC2)c(F)n1 [US11795173, Comp. Ex. 3]
